Laboratory results as given in patent publication US20230135152A1 (ACURASTEM INCORPORATED, priority 2020, published 2023).

Tests used:
PIKFYVE [1] = biological target: T1, PIKFYVE (Homo sapiens, UniProt Q9Y2I7); assay: PIKFYVE assay (luciferase ADP-Glo kinase assay, Promega); format: biochemical
Procedure, shortened: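 ADP generated in the kinase reaction was detected by ADP-Glo luminescence (luciferase).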

PIKFYVE [2] = biological target: T1, PIKFYVE; assay: Cell-based Pikfyve inhibition activity assay (EEA1 staining, mean vesicle size in BJ fibroblast cells); conditions: Table 4, 4 hours treatment, 3 μM Apilimod = 100% inhibition
Protocol: BJ fibroblast cells were obtained from American Type Cell Culture (ATCC, CRL-2522). The cells were maintained in DMEM (Genesee Scientific, 25-500) supplemented with 10% fetal bovine serum (Genesee Scientific, 25-514) and 1% penicillin-streptomycin (Genesee Scientific, 25-512) at 37° C. in the atmosphere 5% CO2. BJ fibroblasts were plated into black flat clear bottom 96-well plates (Grenier, 655090) at a density of 3×10^3 per well and were allowed to attach in culture for 8-10 hours before drug treatment. Drugs were tested at eleven doses separated by 3 fold from 0.03 nM to 3000 nM in triplicates for 4 hours at 37° C. After 4 hours, treatment media was aspirated and replaced with 4% Paraformaldehyde (Electron Microscopy Science, 15714-S) and cells were fixed at room temperature for 5 minutes. 4% PFA in wells were then discarded and replaced with a blocking buffer consisting of 1×PBS with 0.1% Tween (Sigma-Aldrich, P1754-500), 5% Donkey Serum (Jackson ImmunoResearch, 017-000-121), and 1% BSA (Caisson Labs, B005-50GM) and incubated at room temperature for 30 minutes. Blocking buffer was then discarded and replaced with a primary EEA1 antibody (Fisher Scientific, BD610457) in a 1:1000 dilution and incubated at 4° C. overnight. Following overnight incubation, plates were washed with 1×PBS three times and incubated with secondary antibody Donkey anti-Mouse IgG, Alexa Fluor 555 (Invitrogen, A31570) (1:1000 dilution) for 1 hour at room temperature in the dark. Subsequently cell plates were washed with 1×PBS three times and can be stored at 4° C. if not being proceeding with imaging procedure.
Images were acquired with 20× objective (ImageXpress MicroConfocal, Molecular Devices) creating z-series of 5 planes (5 steps, […]), 16 tiles per well. Images were then analyzed using a custom CellProfiler protocol to obtain mean vesicle size. The mean vesicle size from 16 images was used as the output for each well. The mean vesicle size from 0.5% DMSO treated condition was considered as having no Pikfyve inhibition activity and the 3 μM Apilimod treated condition was considered as having 100% inhibition activity. The mean vesicle size was converted to % inhibition activity and the data was fitted to a dose-response curve using log(inhibitor) vs normalized response-variable slope using GraphPad Prism.

T1 sequence (Q9Y2I7 whole entry): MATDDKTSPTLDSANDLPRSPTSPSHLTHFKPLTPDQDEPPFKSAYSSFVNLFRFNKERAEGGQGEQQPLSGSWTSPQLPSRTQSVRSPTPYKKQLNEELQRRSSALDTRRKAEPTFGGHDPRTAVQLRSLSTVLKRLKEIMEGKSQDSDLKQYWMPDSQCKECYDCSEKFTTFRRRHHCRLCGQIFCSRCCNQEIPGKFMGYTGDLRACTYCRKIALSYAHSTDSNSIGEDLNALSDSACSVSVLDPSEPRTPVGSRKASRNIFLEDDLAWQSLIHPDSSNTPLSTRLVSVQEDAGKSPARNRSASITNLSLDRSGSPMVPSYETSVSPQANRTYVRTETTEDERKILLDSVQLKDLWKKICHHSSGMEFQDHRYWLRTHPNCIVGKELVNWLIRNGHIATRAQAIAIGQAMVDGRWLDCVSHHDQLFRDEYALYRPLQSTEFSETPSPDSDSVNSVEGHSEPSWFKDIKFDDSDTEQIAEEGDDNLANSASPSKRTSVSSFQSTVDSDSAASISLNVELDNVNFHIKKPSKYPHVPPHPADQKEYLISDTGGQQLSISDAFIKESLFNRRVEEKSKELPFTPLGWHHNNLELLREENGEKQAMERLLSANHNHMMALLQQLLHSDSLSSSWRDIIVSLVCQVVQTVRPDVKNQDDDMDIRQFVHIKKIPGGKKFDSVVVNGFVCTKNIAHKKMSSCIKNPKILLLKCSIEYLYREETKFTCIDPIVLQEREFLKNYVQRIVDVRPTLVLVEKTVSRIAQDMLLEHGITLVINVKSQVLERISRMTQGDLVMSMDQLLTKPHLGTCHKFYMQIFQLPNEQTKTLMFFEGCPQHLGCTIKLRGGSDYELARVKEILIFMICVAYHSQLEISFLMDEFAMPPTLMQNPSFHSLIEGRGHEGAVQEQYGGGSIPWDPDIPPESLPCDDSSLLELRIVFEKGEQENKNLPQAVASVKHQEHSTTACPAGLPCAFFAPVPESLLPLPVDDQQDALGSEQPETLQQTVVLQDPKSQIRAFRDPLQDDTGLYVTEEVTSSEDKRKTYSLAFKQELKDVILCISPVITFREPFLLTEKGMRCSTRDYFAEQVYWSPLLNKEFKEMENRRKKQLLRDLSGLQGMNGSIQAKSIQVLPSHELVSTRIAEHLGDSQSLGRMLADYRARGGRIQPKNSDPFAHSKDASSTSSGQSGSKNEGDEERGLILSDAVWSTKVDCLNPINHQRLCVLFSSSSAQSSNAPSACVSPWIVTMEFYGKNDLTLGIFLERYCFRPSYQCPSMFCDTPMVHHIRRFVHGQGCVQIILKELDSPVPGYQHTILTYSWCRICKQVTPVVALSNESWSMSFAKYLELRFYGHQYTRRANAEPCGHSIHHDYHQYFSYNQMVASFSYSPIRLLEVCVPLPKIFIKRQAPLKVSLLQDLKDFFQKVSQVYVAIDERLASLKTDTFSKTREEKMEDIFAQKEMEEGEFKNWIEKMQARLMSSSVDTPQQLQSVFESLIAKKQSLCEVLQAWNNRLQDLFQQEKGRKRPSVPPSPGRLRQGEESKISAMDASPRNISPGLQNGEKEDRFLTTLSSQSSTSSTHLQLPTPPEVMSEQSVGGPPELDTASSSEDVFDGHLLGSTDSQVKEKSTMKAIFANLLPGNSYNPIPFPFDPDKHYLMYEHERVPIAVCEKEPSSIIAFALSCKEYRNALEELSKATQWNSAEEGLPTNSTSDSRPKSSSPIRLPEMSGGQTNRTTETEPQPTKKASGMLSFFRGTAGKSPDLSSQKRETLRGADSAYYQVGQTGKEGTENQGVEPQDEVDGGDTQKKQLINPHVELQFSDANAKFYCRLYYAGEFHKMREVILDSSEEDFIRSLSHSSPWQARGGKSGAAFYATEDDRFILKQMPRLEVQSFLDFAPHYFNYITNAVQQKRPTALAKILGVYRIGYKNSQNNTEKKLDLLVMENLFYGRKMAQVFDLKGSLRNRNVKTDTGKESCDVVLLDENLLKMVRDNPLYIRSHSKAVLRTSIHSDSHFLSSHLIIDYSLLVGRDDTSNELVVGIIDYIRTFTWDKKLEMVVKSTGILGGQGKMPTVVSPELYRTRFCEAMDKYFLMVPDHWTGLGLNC

| SMILES | IC50 (PIKFYVE [1]; Table 2) [nM] | EC50 (PIKFYVE [2]) [nM] | IC50 (PIKFYVE [1]; Table 3) [nM] |
| --- | --- | --- | --- |
| Cn1cc(C(O)CCc2nc(N3CCOCC3)cc(-n3ccc(-c4ccccc4)n3)n2)cn1 (centres unmarked) [Compound 79, 1-(1-methyl-1H-pyrazol-4-yl)-3-(4-morpholino-6-(3-phenyl-1H-pyrazol-1-yl)pyrimidin-2-yl)propan-1-ol] | < 5 | 100 to 500 |  |
| Cc1cccc(-c2ccn(-c3cc(N4CCOCC4)nc(OCC(c4ccccc4)N(C)C)n3)n2)c1 (centres unmarked) [Compound 111, N,N-dimethyl-2-((4-morpholino-6-(3-(m-tolyl)-1H-pyrazol-1-yl)pyrimidin-2-yl)oxy)-1-phenylethan-1-amine] |  | > 5000 | 3 to 10 |
| Cc1cccc(-c2ccn(-c3cc(N4CCOCC4)c4[nH]ccc4n3)n2)c1 [Compound 241, 4-(5-(3-(m-tolyl)-1H-pyrazol-1-yl)-1H-pyrrolo[3,2-b]pyridin-7-yl)morpholine] |  | 500 to 5000 | 3 to 10 |
| Cn1cc(CCOc2nccc(N3CCOCC3)n2)cn1 [Compound 173, 4-(2-(2-(1-methyl-1H-pyrazol-4-yl)ethoxy)pyrimidin-4-yl)morpholine] |  | > 5000 | > 5000 |
| Cc1ccccc1-c1ccn(-c2cc(N3CCOCC3)nc(OCCc3cnn(C)c3)n2)n1 [Compound 125, 4-(2-(2-(1-methyl-1H-pyrazol-4-yl)ethoxy)-6-(3-(o-tolyl)-1H-pyrazol-1-yl)pyrimidin-4-yl)morpholine] |  | 100 to 500 | 10 to 100 |
| COc1cc(N2CCOCC2)nc(-n2ccc(-c3cccc(C)c3)n2)n1 [Compound 87, 4-(6-methoxy-2-(3-(m-tolyl)-1H-pyrazol-1-yl)pyrimidin-4-yl)morpholine] | 101 to 1000 | 100 to 500 |  |
| OC(c1ccccc1)c1nc(N2CCOCC2)cc(-n2ccc(-c3ccccc3)n2)n1 (centres unmarked) [Compound 183, (4-morpholino-6-(3-phenyl-1H-pyrazol-1-yl)pyrimidin-2-yl)(phenyl)methanol] |  | 100 to 500 | 10 to 100 |
| Cc1cccc(-c2ccn(-c3cc(N4CCOCC4)nc(C4CCOCC4)n3)n2)c1 [Compound 326, 4-(2-(tetrahydro-2H-pyran-4-yl)-6-(3-(m-tolyl)-1H-pyrazol-1-yl)pyrimidin-4-yl)morpholine] |  | 500 to 5000 | 10 to 100 |
| COC(CC#N)c1nc(N2CCOCC2)cc(-n2ccc(-c3cccc(C)c3)n2)n1 (centres unmarked) [Compound 72, 3-methoxy-3-(4-morpholino-6-(3-(m-tolyl)-1H-pyrazol-1-yl)pyrimidin-2-yl)propanenitrile] | < 5 | 100 to 500 |  |
| Cc1cccc(-c2ccn(-c3cc(N4CCOCC4)nc(OCC#N)n3)n2)c1 [Compound 174, 2-((4-morpholino-6-(3-(m-tolyl)-1H-pyrazol-1-yl)pyrimidin-2-yl)oxy)acetonitrile] |  | 100 to 500 | 3 to 10 |
| Cn1cc(CCOc2nc(N3CCOCC3)cc(-n3ccc(-c4cccc(C#N)c4)n3)n2)cn1 [Compound 126, 3-(1-(2-(2-(1-methyl-1H-pyrazol-4-yl)ethoxy)-6-morpholino-pyrimidin-4-yl)-1H-pyrazol-3-yl)benzonitrile] |  | 100 to 500 | 10 to 100 |
| CC#CCOc1nc(N2CCOCC2)cc(-n2ccc(-c3cccc(C)c3)n2)n1 [Compound 103, 4-(2-(but-2-yn-1-yloxy)-6-(3-(m-tolyl)-1H-pyrazol-1-yl)pyrimidin-4-yl)morpholine] |  | 100 to 500 | 3 to 10 |
| Cc1cccc(-c2ccn(-c3cc(N4CCOCC4)nc(OCCN(C)c4ccccc4)n3)n2)c1 [Compound 100, N-methyl-N-(2-((4-morpholino-6-(3-(m-tolyl)-1H-pyrazol-1-yl)pyrimidin-2-yl)oxy)ethyl)aniline] |  | 100 to 500 | 3 to 10 |
| COC(Cc1ccnn1C)c1nc(N2CCOCC2)cc(-n2ccc(-c3ccccc3)n2)n1 (centres unmarked) [Compound 68, 4-(2-(1-methoxy-2-(1-methyl-1H-pyrazol-5-yl)ethyl)-6-(3-phenyl-1H-pyrazol-1-yl)pyrimidin-4-yl)morpholine] | < 5 | 100 to 500 |  |
| Cn1cc(CCOc2nc(N3CCOCC3)cc(-n3ccc(-c4ccncc4)n3)n2)cn1 [Compound 191, 4-(2-(2-(1-methyl-1H-pyrazol-4-yl)ethoxy)-6-(3-(pyridin-4-yl)-1H-pyrazol-1-yl)pyrimidin-4-yl)morpholine] |  | > 5000 | 10 to 100 |
| CO[C@H](CO)c1nc(N2CCOCC2)cc(-n2ccc(-c3cccc4ncsc34)n2)n1 [Compound 274, (S)-2-(4-(3-(benzo[d]thiazol-7-yl)-1H-pyrazol-1-yl)-6-morpholinopyrimidin-2-yl)-2-methoxyethan-1-ol] |  | > 5000 | 100 to 5000 |
| COC(=O)c1ccn(-c2cc(N3CCOCC3)nc(OCCc3cnn(C)c3)n2)n1 [Compound 70] | 5 to 100 | > 5000 |  |
| Cc1cc(-c2ccccc2)nn1-c1cc(N2CCOCC2)nc(OCCc2cnn(C)c2)n1 [Compound 127, 4-(2-(2-(1-methyl-1H-pyrazol-4-yl)ethoxy)-6-(5-methyl-3-phenyl-1H-pyrazol-1-yl)pyrimidin-4-yl)morpholine] |  | 20 to 100 | < 3 |

Results, then the molecule that gave them:

| IC50 (PIKFYVE [1]; Table 2) [nM] | EC50 (PIKFYVE [2]) [nM] | IC50 (PIKFYVE [1]; Table 3) [nM] | SMILES |
| --- | --- | --- | --- |
|  | 20 to 100 | < 3 | CNCCc1cc(-c2ccccc2)nn1-c1cc(N2CCOCC2)nc(OCCc2cnn(C)c2)n1 [Compound 221, N-methyl-2-(1-(2-(2-(1-methyl-1H-pyrazol-4-yl)ethoxy)-6-morpholinopyrimidin-4-yl)-3-phenyl-1H-pyrazol-5-yl)ethan-1-amine] |
|  | 20 to 100 | < 3 | Cc1cccc(-c2ccn(-c3cc(N4CCOCC4)nc(COCc4cn[nH]c4)n3)n2)c1 [Compound 300, 4-(2-(((1H-pyrazol-4-yl)methoxy)methyl)-6-(3-(m-tolyl)-1H-pyrazol-1-yl)pyrimidin-4-yl)morpholine] |
| < 5 | 20 to 100 |  | Cc1cccc(-c2ccn(-c3cc(N4CCOCC4)nc(OC[C@@H](O)c4ccccc4)n3)n2)c1 (single isomer, unassigned) [Compound 57] |
|  | 20 to 100 | 3 to 10 | Cc1cccc(-c2ccn(-c3cc(N4CCOCC4)nc(/C=C/c4cnn(C)c4)n3)n2)c1 [Compound 304, (E)-4-(2-(2-(1-methyl-1H-pyrazol-4-yl)vinyl)-6-(3-(m-tolyl)-1H-pyrazol-1-yl)pyrimidin-4-yl)morpholine] |
| < 5 | 20 to 100 |  | Cn1cc(CCOc2nc(N3CCOCC3)cc(-n3ccc(OCc4ccccc4)n3)n2)cn1 [Compound 62, 4-(6-(3-(benzyloxy)-1H-pyrazol-1-yl)-2-(2-(1-methyl-1H-pyrazol-4-yl)ethoxy)pyrimidin-4-yl)morpholine] |
|  | < 20 | < 3 | Cc1cccc(-c2cc([C@H](C)O)n(-c3cc(N4CCOCC4)nc(OCCc4cnn(C)c4)n3)n2)c1 (single isomer, unassigned) [Compound 313] |
|  | 20 to 100 | < 3 | CC#CCCOc1nc(N2CCOCC2)cc(-n2ccc(-c3cccc(C)c3)n2)n1 [Compound 104, 4-(2-(pent-3-yn-1-yloxy)-6-(3-(m-tolyl)-1H-pyrazol-1-yl)pyrimidin-4-yl)morpholine] |
| < 5 | 20 to 100 |  | Cc1cccc(-c2ccn(-c3cc(N4CCOCC4)nc(OCCc4ccnn4C)n3)n2)c1 [Compound 55, 4-(2-(2-(1-methyl-1H-pyrazol-5-yl)ethoxy)-6-(3-(m-tolyl)-1H-pyrazol-1-yl)pyrimidin-4-yl)morpholine] |
|  | 20 to 100 | < 3 | Cn1cc(CCOc2nc(N3CCOCC3)cc(-n3ccc(-c4ccccc4)n3)n2)cn1 [Compound 189, 4-(2-(2-(1-methyl-1H-pyrazol-4-yl)ethoxy)-6-(3-phenyl-1H-pyrazol-1-yl)pyrimidin-4-yl)morpholine] |
|  | 20 to 100 | < 3 | Cc1cccc(Oc2ccn(-c3cc(N4CCOCC4)nc(OCCc4cnn(C)c4)n3)n2)c1 [Compound 346] |
| 5 to 100 | 20 to 100 |  | COc1nc(N2CCOCC2)cc(-n2ccc(-c3cccc(C)c3)n2)n1 [Compound 59, 4-(2-methoxy-6-(3-(m-tolyl)-1H-pyrazol-1-yl)pyrimidin-4-yl)morpholine] |
|  | < 20 | < 3 | CO[C@@H](CO)c1nc(N2CCOCC2)cc(-n2nc(-c3c[nH]c4ccccc34)cc2C)n1 (single isomer, unassigned) [Compound 261] |
|  | < 20 | < 3 | CO[C@@H](CO)c1nc(N2CCOCC2)cc(-n2ccc(-c3c[nH]c4ccccc34)n2)n1 (single isomer, unassigned) [Compound 319] |
